{"source": "patent US5834010A", "about": "“Triacetin as a penetration enhancer for transdermal delivery of a basic drug” (priority 1997, dated 1998)", "key": {"[1]": {"test": "In vitro human cadaver skin flux of oxybutynin free base from adhesive matrix patches (modified Franz cells)", "protocol": "In vitro human cadaver skin flux studies were conducted using modified Franz non-jacketed permeation cells. The temperature of the cells was maintained at 32° C. by placing the cells in a circulating water bath positioned over a stirring module. The epidermal membrane was separated from the human cadaver whole skin by the heat-separation method of Kligman & Christopher, 88 Arch. Dermatol. 702 (1963), hereby incorporated by reference, involving treating the full thickness skin at 60° C. for 60 seconds, after which time the stratum corneum and the epidermis (epidermal membrane) were gently peeled from the dermis.\nFor skin flux studies of matrix devices, the epidermal membrane was cut into rectangular strips, and the matrix device was cut into 0.96 cm^2 circular discs. The release liner was peeled from the disc, and the disc was laminated onto the stratum corneum surface of the epidermal membrane to form a skin-matrix laminate. The skin-matrix laminate was then loaded between the donor and receiver compartments of a diffusion cell with the epidermal side facing the receiver compartment. The laminate was clamped in place, and the receiver compartment was then filled with an appropriate receiving solution for a selected drug. The receiving solution was selected such that the drug was stable in the solution, the subsequent assay of the drug was not interfered with, and solubility of the drug was adequate to ensure sink conditions throughout the experiment. The diffusion cell was then placed in a circulating water bath calibrated to maintain the skin surface temperature at 32°±1° C. At predetermined sampling intervals, the entire contents of the receiver compartment were collected for drug quantitation, and the receiver compartment was filled with fresh receiving solution, taking care to eliminate any air bubbles at the skin/solution interface.\nThe cumulative amount of drug permeating through the epidermal membrane, Qt (μg/cm^2), at any time t was determined from the following formula: [formula] where Cn is the concentration (μg/ml) of the drug in the receiver sample for the corresponding sample time, V is the volume of fluid in the receiver chamber (~6.3 cm^3), and A is the diffusional area of the cell (0.64 cm^2). The slope of the best fit line to the plot of Qt vs. t gives the steady state flux (Jss, μg/cm^2 /hr); the intercept of this line on the time axis give the lag time (tL,h).\nMatrix patches containing varying amounts of oxybutynin free base and penetration enhancers were prepared and tested as described above. The matrix systems consisted of 5 to 20% by weight of oxybutynin free base and 0 to 20% by weight of the enhancer contained in a medical grade acrylic copolymer adhesive.\nThe matrix formulations were prepared as follows. First, the solids content of the adhesive was determined by weighing a small amount of the adhesive solution in a preweighed aluminum dish. The solvent was evaporated by overnight drying in a convection oven maintained at 80° C. and the weight of the residue (dry adhesive) and percent solid adhesive content of the solution were determined. Once the solids content was determined, a known weight of the acrylic copolymer adhesive solution was weighed into a glass bottle. From the weight of the adhesive solution and the percent solid adhesive content, the amount of adhesive in the solution was calculated. Oxybutynin free base and enhancer were added to the bottle in proportions to yield the selected final composition. The bottle was then tightly capped, sealed with laboratory film, and rotated overnight until all ingredients had completely dissolved and the resultant solution was visually clear.\nApproximately 8 ml of the solution was then dispensed on a silanized polyester release liner and cast with a 10 mil gap casting knife. The casting was then dried in a convection oven at 70° C. for 15 minutes to evaporate the solvent and to yield a dried film approximately 0.002 inch thick."}, "[2]": {"details": "Allen, U.S. Pat. No. 4,895,727; cited from earlier work"}, "[3]": {"details": "isosorbide dinitrate, JP05148141-A; cited from earlier work"}, "[4]": {"test": "In vitro human cadaver skin flux of oxybutynin free base from liquid reservoir gel formulations", "format": "in vitro ADME", "protocol": "For skin flux studies of gel formulations (i.e., for liquid reservoir patch designs), the epidermal membrane was cut and placed between two halves of the permeation cell with the stratum corneum facing the donor compartment. The skin was allowed to hydrate at 32° C. overnight with 0.02% (w/v) sodium azide solution in the receiver compartment. The following morning, 75 μl of a gelled formulation was placed into a cavity created by placing a polytetrafluoroethylene washer over the stratum corneum surface. The cavity was then occluded by clamping an occlusive backing over the washer and gel. An appropriate receiving solution for a selected drug was placed in the receiver compartment in contact with the dermal side of the epidermis.\nLiquid reservoir gel formulations containing oxybutynin free base and triacetin were tested as described above. Such liquid reservoir gel formulations were prepared in 10 ml quantities. Ethanol, water, glycerin, and triacetin were mixed in selected proportions in a capped vial. Then, 400 mg of oxybutynin free base was added to the vial, and the vial was capped and ultrasonicated to completely dissolve the drug. Next, 0.3 g of modified hydroxyethyl cellulose (NATROSOL PLUS 330CS, Aqualon, Wilmington, Del.) as a gelling agent was added to the mixture and the contents were mixed thoroughly and gently rotated overnight to completely dissolve the gelling agent."}, "[5]": {"details": "plaster with glycol and surfactant, WO9309783-A1; cited from earlier work"}, "[6]": {"details": "propylene glycol/linoleic acid enhancer system; cited from earlier work"}, "[7]": {"test": "Enhancement of transdermal penetration, general statement", "format": "in vitro ADME", "description": "As used herein, the terms \"enhancement\", \"penetration enhancement\" or \"permeation enhancement\" mean an increase in the permeability of a biological membrane (i.e. skin or mucosa) to a drug, so as to increase the rate at which the drug permeates through the membrane. \"Permeation enhancer,\" \"enhancer,\" \"penetration enhancer,\" or similar term means a material that achieves such permeation enhancement, and an \"effective amount\" of an enhancer means an amount effective to enhance penetration through the skin or mucosa of a selected agent to a selected degree. The enhanced permeation as effected though the use of such enhancers can be observed, for example, by measuring the rate of diffusion of the drug through animal or human skin using a diffusion cell apparatus. Such a diffusion cell is described by Merritt et al., Diffusion Apparatus for Skin Penetration, 1 J. of Controlled Release 61 (1984), incorporated herein by reference."}}, "note": "Where two headings read alike, the source gives them in different places."}
{"molecule": "CN1CCCC1=O", "note": "[N-methyl pyrrolidone, reference compound]", "values": [{"measurement": "exhibited the ability to increase transdermal skin flux of oxybutynin free base", "setting": "[1]", "value": "none of the well known penetration enhancers tested"}]}
{"molecule": "CCCCCCCC/C=C\\CCCCCCCC(=O)OCC(O)CO", "note": "(centres unmarked) [glycerol monooleate, reference compound]", "values": [{"measurement": "exhibited the ability to increase transdermal skin flux of oxybutynin free base", "setting": "[1]; matrix system, TSR adhesive", "value": "none of the well known penetration enhancers tested"}]}
{"molecule": "CCCCCCCCCCCCCC(=O)OC(C)C", "note": "[isopropyl myristate, reference compound]", "values": [{"measurement": "exhibited the ability to increase transdermal skin flux of oxybutynin free base", "setting": "[1]; matrix system, TSR adhesive", "value": "none of the well known penetration enhancers tested"}]}
{"molecule": "CCCCCCCCCCCCO", "note": "[lauryl alcohol, reference compound]", "values": [{"measurement": "exhibited the ability to increase transdermal skin flux of oxybutynin free base", "setting": "[1]; matrix system, TSR adhesive", "value": "none of the well known penetration enhancers tested"}]}
{"molecule": "CC(=O)OCC(COC(C)=O)OC(C)=O", "note": "[triacetin, glyceryl triacetate]", "values": [{"measurement": "antifungal activity", "setting": "[2]", "value": "has activity as an antifungal agent"}, {"measurement": "effect on skin flux of oxybutynin free base", "setting": "[1]", "value": "significantly increases the skin flux of oxybutynin free base"}, {"measurement": "penetration enhancing effect of triacetin", "setting": "[3]", "value": "shown only in conjunction with a neutral, solvent-acting drug"}, {"measurement": "penetration enhancement with liquid reservoir patches", "setting": "[4]", "value": "no penetration enhancement of basic drugs (including oxybutynin) or other drugs has been observed"}, {"measurement": "percutaneous absorption of piroxicam", "setting": "[5]", "value": "enhances percutaneous absorption of piroxicam"}, {"measurement": "flux of oxymorphone with increasing amounts of triacetin and decreasing linoleic acid", "setting": "[6]", "value": "decreasing flux"}, {"measurement": "lag time for permeation of oxymorphone with increasing amounts of triacetin and decreasing linoleic acid", "setting": "[6]", "value": "increasing lag time"}, {"measurement": "enhancing transdermal penetration of basic drugs", "setting": "[7]; basic drugs, particularly pKa of about 8.0 or above, matrix patch", "value": "effective in enhancing transdermal penetration of basic drugs"}, {"measurement": "enhancing transdermal penetration of neutral or acidic drugs", "setting": "[7]; neutral or acidic drugs", "value": "not of neutral or acidic drugs"}]}
{"molecule": "sorbitan monooleate [reference compound]", "values": [{"measurement": "exhibited the ability to increase transdermal skin flux of oxybutynin free base", "setting": "[1]; matrix system, TSR adhesive", "value": "none of the well known penetration enhancers tested"}]}
